According to publication PMC5544727, “The type IV pilus assembly ATPase PilB functions as a signaling protein to regulate exopolysaccharide production in Myxococcus xanthus” (Scientific Reports, 2017):
Residue numbers refer to the chain shown, from its start.

Key:
Type in all cases: binding
[1] = biological target: T1, PilB^WA (T. thermophilus PilB/PilF, TtPilB) (Thermus thermophilus, UniProt Q5SLC9, K654A); experiment: near-UV CD spectral shift (less pronounced than WT), […] ligand
T1 sequence (Q5SLC9 1-889 K654A): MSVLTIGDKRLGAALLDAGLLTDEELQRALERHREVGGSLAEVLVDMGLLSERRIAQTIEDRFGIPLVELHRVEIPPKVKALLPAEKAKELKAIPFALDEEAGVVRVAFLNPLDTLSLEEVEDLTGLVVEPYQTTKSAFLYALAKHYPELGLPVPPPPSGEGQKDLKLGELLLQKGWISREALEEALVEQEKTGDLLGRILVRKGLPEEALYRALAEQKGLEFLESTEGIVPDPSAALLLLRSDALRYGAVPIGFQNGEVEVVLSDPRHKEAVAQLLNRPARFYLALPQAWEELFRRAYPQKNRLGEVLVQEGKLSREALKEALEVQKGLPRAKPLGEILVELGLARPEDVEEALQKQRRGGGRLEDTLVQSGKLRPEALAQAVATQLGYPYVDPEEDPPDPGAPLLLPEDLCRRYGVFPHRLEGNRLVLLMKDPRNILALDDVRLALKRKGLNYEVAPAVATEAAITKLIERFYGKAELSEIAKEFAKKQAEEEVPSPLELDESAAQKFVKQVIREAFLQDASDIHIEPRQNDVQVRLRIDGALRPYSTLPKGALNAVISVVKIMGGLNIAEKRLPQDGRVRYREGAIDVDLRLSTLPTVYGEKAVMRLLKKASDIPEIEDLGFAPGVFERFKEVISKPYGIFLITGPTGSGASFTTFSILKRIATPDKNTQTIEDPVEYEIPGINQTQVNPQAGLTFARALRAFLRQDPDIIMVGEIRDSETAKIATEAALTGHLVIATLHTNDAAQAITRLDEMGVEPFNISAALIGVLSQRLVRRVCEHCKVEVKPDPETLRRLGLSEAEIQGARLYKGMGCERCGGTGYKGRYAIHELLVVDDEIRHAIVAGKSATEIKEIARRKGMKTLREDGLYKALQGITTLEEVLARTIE

[2] = biological target: T2, PilB^WT (T. thermophilus PilB/PilF, TtPilB) (Thermus thermophilus, UniProt Q72H73); experiment: near-UV CD spectral shift, […] ligand
[3] = biological target: T3, PilB^WB (T. thermophilus PilB/PilF, TtPilB) (Thermus thermophilus, UniProt Q5SLC9, E718A); experiment: near-UV CD spectral shift, […] ligand
T3 sequence (Q5SLC9 1-889 E718A): T1 sequence (Q5SLC9 1-889 K654A) with A654K, E718A

[4] = biological target: T3, PilB^WB (T. thermophilus PilB/PilF, TtPilB); experiment: fluorescence titration of MANT-ATP with purified protein
[5] = biological target: T1, PilB^WA (T. thermophilus PilB/PilF, TtPilB); experiment: as above
[6] = biological target: T2, PilB^WT (T. thermophilus PilB/PilF, TtPilB); experiment: as above
[7] = biological target: T2, PilB^WT (T. thermophilus PilB/PilF, TtPilB); experiment: DSF thermal stabilization, […] ligand (no Kd)
[8] = biological target: T3, PilB^WB (T. thermophilus PilB/PilF, TtPilB); experiment: DSF thermal stabilization, […] ligand (no Kd)

T2 sequence (Q72H73 entry or part of it): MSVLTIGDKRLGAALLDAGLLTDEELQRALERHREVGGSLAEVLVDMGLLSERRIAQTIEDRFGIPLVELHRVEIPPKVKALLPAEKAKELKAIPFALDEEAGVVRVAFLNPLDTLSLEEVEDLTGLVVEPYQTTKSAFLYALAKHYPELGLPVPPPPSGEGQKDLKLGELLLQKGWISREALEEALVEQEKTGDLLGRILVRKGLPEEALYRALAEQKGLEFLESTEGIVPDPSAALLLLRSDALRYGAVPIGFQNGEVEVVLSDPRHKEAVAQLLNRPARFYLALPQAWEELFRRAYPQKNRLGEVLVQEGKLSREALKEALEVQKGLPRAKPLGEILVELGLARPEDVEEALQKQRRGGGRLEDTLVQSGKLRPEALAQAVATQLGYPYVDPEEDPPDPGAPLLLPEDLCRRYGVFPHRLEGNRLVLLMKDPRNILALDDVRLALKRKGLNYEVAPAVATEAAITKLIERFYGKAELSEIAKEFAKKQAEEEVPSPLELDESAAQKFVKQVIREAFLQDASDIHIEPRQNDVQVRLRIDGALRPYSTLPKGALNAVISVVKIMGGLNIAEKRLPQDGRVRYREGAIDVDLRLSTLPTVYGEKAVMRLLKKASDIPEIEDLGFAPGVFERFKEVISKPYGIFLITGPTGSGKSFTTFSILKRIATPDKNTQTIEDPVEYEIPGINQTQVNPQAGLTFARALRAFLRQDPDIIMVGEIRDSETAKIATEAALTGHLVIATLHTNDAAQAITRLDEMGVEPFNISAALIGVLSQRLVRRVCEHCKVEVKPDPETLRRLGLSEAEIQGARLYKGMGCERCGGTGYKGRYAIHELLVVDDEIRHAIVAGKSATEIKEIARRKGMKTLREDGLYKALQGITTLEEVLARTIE

## Nc1ncnc2c1ncn2[C@@H]1O[C@H](COP(=O)(O)OP(=O)(O)OP(=O)(O)O)[C@@H](O)[C@H]1O [ATP]
[1]
  near-UV CD spectral shift (less pronounced than WT), 0.1 mM ligand: the shift for PilB^WA is less pronounced compared to those seen for the other two

## Nc1ncnc2c1ncn2[C@@H]1O[C@H](COP(=O)(O)OP(=O)(O)O)[C@@H](O)[C@H]1O [ADP]
[2]
  near-UV CD spectral shift, 0.1 mM ligand: The addition of ADP also shifted the spectra of PilB^WT and PilB^WB, but not that of PilB^WA
[3]
  near-UV CD spectral shift, 0.1 mM ligand: The addition of ADP also shifted the spectra of PilB^WT and PilB^WB, but not that of PilB^WA

## CNc1ccccc1C(=O)O[C@H]1[C@@H](O)[C@H](n2cnc3c(N)ncnc32)O[C@@H]1CO[P@@](=O)(O)O[P@](=O)(O)OP(=O)(O)O (mixture of isomers) [MANT-ATP, 2′-/3′-O-(N-methylanthraniloyl) adenosine-5′-triphosphate]
[4]
  Kd: 190 nM
[5]
  Kd: 1230 nM
[6]
  Kd: 170 nM

## Nc1ncnc2c1ncn2[C@@H]1O[C@H](CO[P@](=O)(O)O[P@](=O)(O)NP(=O)(O)O)[C@@H](O)[C@H]1O [AMP-PNP, adenosine 5′-(β,γ-imido)triphosphate]
[7]
  DSF thermal stabilization, 0.4 mM ligand (no Kd): This nucleotide stabilized both PilB^WT and PilB^WB, resulting in the disappearance of the first unfolding transition
[8]
  DSF thermal stabilization, 0.4 mM ligand (no Kd): This nucleotide stabilized both PilB^WT and PilB^WB, resulting in the disappearance of the first unfolding transition
